{"source": "patent US6573244B1", "about": "(priority 1999, dated 2003)", "key": {"BttxB": {"target": "BttxB (Clostridium botulinum, UniProt P10844)", "experiment": "biochemical"}, "[1]": {"settings": "rat, in vivo, ip"}, "Bttxs": {"test_system": "Bttxs", "settings": "cited from earlier work"}, "[2]": {"target": "T1, Botulinum toxin B, P10844", "T1 chain": "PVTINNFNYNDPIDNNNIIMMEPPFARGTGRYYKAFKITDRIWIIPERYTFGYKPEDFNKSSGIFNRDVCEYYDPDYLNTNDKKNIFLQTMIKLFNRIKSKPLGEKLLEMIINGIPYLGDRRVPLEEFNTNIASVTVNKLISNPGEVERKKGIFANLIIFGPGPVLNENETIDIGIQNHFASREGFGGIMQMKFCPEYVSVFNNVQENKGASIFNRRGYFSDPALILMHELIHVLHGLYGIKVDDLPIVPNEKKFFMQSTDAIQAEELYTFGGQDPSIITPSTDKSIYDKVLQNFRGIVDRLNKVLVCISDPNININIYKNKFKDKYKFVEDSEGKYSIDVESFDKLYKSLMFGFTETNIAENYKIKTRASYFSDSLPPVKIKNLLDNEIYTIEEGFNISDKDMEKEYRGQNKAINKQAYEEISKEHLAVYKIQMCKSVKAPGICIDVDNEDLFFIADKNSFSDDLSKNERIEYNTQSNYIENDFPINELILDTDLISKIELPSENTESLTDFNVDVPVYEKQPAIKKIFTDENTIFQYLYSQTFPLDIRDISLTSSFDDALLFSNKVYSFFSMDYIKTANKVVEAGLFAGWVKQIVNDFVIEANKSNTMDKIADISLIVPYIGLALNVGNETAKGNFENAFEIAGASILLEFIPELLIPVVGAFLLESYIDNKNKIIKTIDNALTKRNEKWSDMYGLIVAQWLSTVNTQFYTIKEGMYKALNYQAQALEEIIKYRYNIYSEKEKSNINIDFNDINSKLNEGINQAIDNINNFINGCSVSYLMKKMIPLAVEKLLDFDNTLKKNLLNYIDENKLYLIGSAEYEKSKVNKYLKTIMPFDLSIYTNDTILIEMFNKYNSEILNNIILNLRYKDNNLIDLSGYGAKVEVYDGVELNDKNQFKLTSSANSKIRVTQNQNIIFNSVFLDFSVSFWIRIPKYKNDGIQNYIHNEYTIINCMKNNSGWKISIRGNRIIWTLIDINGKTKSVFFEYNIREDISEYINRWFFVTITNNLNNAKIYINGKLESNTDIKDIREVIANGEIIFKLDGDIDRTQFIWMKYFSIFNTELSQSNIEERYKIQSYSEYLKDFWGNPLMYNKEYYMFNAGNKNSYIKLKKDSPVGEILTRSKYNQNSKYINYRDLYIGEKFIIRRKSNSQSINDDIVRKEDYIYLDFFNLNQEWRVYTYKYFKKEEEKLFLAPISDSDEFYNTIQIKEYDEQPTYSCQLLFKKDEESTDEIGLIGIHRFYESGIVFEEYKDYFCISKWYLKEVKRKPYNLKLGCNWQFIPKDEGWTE", "experiment": "cell-based or functional assay"}}, "note": "Ends that are not written are not given here.", "data": [{"molecule": "CC(C)C[C@H](NC(=O)CNC(=O)[C@H](C)NC(=O)[C@H](CCCNC(=N)N)NC(=O)[C@H](CO)NC(=O)[C@H](CO)NC(=O)[C@H](CCCNC(=N)N)NC(=O)[C@@H](NC(=O)[C@H](CCCCN)NC(=O)[C@H](C)NC(=O)[C@H](CCCCN)NC(=O)[C@H](C)NC(=O)[C@H](CCCNC(=N)N)NC(=O)[C@@H](NC(=O)[C@H](CCCCN)NC(=O)CNC(=O)CNC(=O)[C@H](CCC(N)=O)NC(=O)[C@H](CCCCN)NC(=O)CNC(=O)[C@H](CCCNC(=N)N)NC(=O)CNC(=O)[C@H](C)N)C(C)C)[C@@H](C)O)C(=O)N[C@@H](CCC(N)=O)C(=O)N[C@@H](Cc1ccccc1)C(=O)N1CCC[C@H]1C(=O)N[C@H](C(=O)NCC(=O)N[C@@H](CCCNC(=N)N)C(=O)N[C@H](C(=O)N[C@@H](Cc1c[nH]cn1)C(=O)N[C@@H](CCCNC(=N)N)C(=O)N[C@@H](CC(C)C)C(=O)N[C@@H](CC(C)C)C(=O)N[C@@H](CCCNC(=N)N)C(=O)N[C@@H](CCCCN)C(=O)NCC(=O)N[C@@H](CC(N)=O)C(=O)N[C@@H](Cc1ccc(O)cc1)C(=O)O)C(C)C)C(C)C", "note": "[Buforin I]", "values": [{"measurement": "IC50", "setting": "BttxB", "result": 1000, "unit": "nM"}, {"measurement": "mode of inhibition of BttxB activity", "setting": "BttxB", "result": "dose-dependently and competitively inhibits"}, {"measurement": "substrate of BttxB or not", "setting": "BttxB", "result": "not to be a substrate"}, {"measurement": "plateau (time to maximal-plateau level)", "setting": "[1]", "result": "≤ 40", "unit": "min"}, {"measurement": "time the maximal-plateau level was maintained", "setting": "[1]", "result": "up to 4 h"}, {"measurement": "time to reach ½ the absorbed maximal value", "setting": "[1]", "result": 7.7, "unit": "min"}, {"measurement": "uptake into the blood stream, in words", "setting": "[1]", "result": "rapid uptake"}]}, {"molecule": "C[C@H](CS)C(=O)N1CCC[C@H]1C(=O)O", "note": "[captopril]", "values": [{"measurement": "inhibition of Bttxs, in words", "setting": "Bttxs", "result": "not effective inhibitors"}]}, {"molecule": "CC(C)C[C@H](NP(=O)(O)O[C@@H]1O[C@@H](C)[C@H](O)[C@@H](O)[C@H]1O)C(=O)N[C@@H](Cc1c[nH]c2ccccc12)C(=O)O", "note": "[phosphoramidon]", "values": [{"measurement": "inhibition of Bttxs, in words", "setting": "Bttxs", "result": "not effective inhibitors"}]}, {"molecule": "AGRGKQGGKVRAKAKTRSSRAGLQFPVGRVHRLLRK [Peptide 36]", "values": [{"measurement": "substrate of BttxB or not", "setting": "BttxB", "result": "not substrates"}]}, {"molecule": "ELDDRADALQ [Peptide V2]", "values": [{"measurement": "inhibition of Bttxs, in words", "setting": "Bttxs", "result": "found to inhibit Bttx activity"}]}, {"molecule": "RPKPQQFFGLM [Substance P]", "values": [{"measurement": "inhibition of BttxB, in words", "setting": "BttxB", "result": "weak inhibitor"}, {"measurement": "substrate of BttxB or not", "setting": "BttxB", "result": "not a substrate"}]}, {"molecule": "TRSRAKGLQFPGLLVHRLLRKGNY [Peptide 05P]", "values": [{"measurement": "IC50", "setting": "BttxB", "result": "< 200000", "unit": "nM"}]}, {"molecule": "TRSSRAGLQFPVGRVHRLLRKGNY [Peptide 24]", "values": [{"measurement": "substrate of BttxB or not", "setting": "BttxB", "result": "not substrates"}]}, {"molecule": "TRSRAKGLQFPGLLVHRLLRKGNY (modifications not checked)", "note": "[Peptide 05P]", "values": [{"measurement": "inhibition of botulinum B proteolytic activity", "setting": "[2]", "result": "< 200", "unit": "µM"}, {"measurement": "potency of inhibition relative to Substance P", "setting": "[2]", "result": "< 4", "unit": "fold"}]}]}
